In publication PMC3495596 (Journal of medicinal chemistry, 2012):

Experiments:
thermolysin [1] = molecular target: T1, thermolysin (Bacillus thermoproteolyticus, UniProt P00800); assay type: biochemical; settings: free energy of binding corresponding to Ki
thermolysin [2] = molecular target: T1, thermolysin; assay type: binding

T1 sequence (P00800 233-548): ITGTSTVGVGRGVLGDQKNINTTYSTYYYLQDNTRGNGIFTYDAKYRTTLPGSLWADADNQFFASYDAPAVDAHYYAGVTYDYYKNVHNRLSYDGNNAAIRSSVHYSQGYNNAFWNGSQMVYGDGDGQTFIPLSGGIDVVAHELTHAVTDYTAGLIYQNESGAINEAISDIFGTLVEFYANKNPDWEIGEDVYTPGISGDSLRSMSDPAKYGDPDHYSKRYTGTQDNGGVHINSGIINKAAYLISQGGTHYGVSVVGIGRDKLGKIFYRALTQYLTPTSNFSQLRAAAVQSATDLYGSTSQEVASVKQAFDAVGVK

SMILES | ΔGKi (thermolysin [1]) [kcal/mol] | ΔΔH (thermolysin [2]) [kcal/mol]
CC(C)C[C@H](NP(=O)([O-])CNC(=O)OCc1ccccc1)C(=O)NCC(=O)[O-].[Li+].[Li+] [Compound 8a, N-(N-(N-(benzyloxycarbonyl)-aminomethylphosphonyl)-L-leucinyl)-glycinate di-lithium] | -8.63 | –
CC(C)C[C@H](NP(=O)([O-])CNC(=O)OCc1ccccc1)C(=O)N[C@@H](C)C(=O)[O-].[Li+].[Li+] [Compound 8b, N-(N-(N-(benzyloxycarbonyl)-aminomethylphosphonyl)-L-leucinyl)-alaninate di-Lithium] | -10.5 | -3.18
CNC(=O)[C@H](CC(C)C)NP(=O)([O-])CNC(=O)OCc1ccccc1.[Li+] [Compound 8c, N-(N-(benzyloxycarbonyl)-aminomethylphosphonyl)-N′-methyl-L-leucinamide lithium] | -8.25 | –
CCNC(=O)[C@H](CC(C)C)NP(=O)([O-])CNC(=O)OCc1ccccc1.[Li+] [Compound 8d, N-(N-(benzyloxycarbonyl)-aminomethylphosphonyl)-N′-ethyl-L-leucinamide lithium] | -8.91 | –
